From patent US9597336B2, “Therapy for treatment of chronic degenerative brain diseases and nervous system injury” (THE REGENTS OF THE UNIVERSITY OF CALIFORNIA, priority 2004, dated 2017) come the findings set out here.

Experiment [1] has as its system Niemann Pick type-C mice. Kind of experiment: Allopregnanolone, T0901317 and their combination in NP-C mice: lifespan, rotorod. The experiment is classed as in vivo, mouse. Conditions: for lifespan (mean): allopregnanolone 25 mg/kg s.c. single injection at P7, T0901317 50 mg/kg/day from day 18; for onset of symptoms: rotorod trials; for age at which loss of motor function begins: untreated begin at 35 days. The method, then: (§1) The materials and methods used for the following experiments have been described in Griffin L. D., et al., Nature Medicine 10: 704-711 (2004). This reference is hereby incorporated by reference in its entirety.
Mice were given a single injection of allopregnanolone, prepared in 20% β-cyclodextrin in phosphate buffered saline, at a concentration of 25 mg/kg. The injection was on day 7 of life (P7, postnatal day 7). T0901317 treatment was started on day 18 (50 mg/kg/day) in chow. Efficacy was assessed by measuring body weight, and neurological symptoms, using a rotorod test. Efficacy was further assessed by measuring lifespan.

Experiment [2] has as its system Niemann Pick type-C mice. In words: Ganaxolone treatment of NP-C mice: lifespan, weight, locomotor skills. The experiment is classed as in vivo, mouse. The method, then:
as §1
Mice were given a single injection of ganaxolone, prepared in 20% β-cyclodextrin in phosphate buffered saline, at a concentration of 25 mg/kg. The injection was on day 7 of life (P7, postnatal day 7).
Efficacy of treatment was assessed by measuring body weight, neurological symptoms, using behavioral tests such as wire hang test, rope climbing test, walking on an mesh inclined plane, and walking on a horizontal surface, measuring coordination, use of all 4 limbs, posture, tail placement. Efficacy was also assessed by measuring lifespan. Results of these experiments are summarized below, and are shown graphically in FIG. 7.

In experiment [3] the test system is gangliosides GM1, GM2, and GM3 in the brain. Kind of experiment: Ganglioside accumulation in brain of allopregnanolone-treated Niemann Pick type-C mice. The experiment is classed as in vivo, mouse. The method, then:
as §1
Mice were given a single injection of allopregnanolone, prepared in 20% βcyclodextrin in phosphate buffered saline, at a concentration of 25 mg/kg. The injection was on day 7 of life (P7, postnatal day 7). Concentrations of gangliosides GM1, GM2, GM3, were measured as well as other lipids such as ceramides and cerebrosides.

In experiment [4] the test system is CD4+, CD8+, MAC1+ and MHCII+ cells in brain. Kind of experiment: Immunocytochemistry of inflammatory cells in brains of NP-C mice. The experiment is classed as in vivo, mouse. How it is done: as §1
(§2) Mice were again given a single injection of allopregnanolone, prepared in 20% β-cyclodextrin in phosphate buffered saline, at a concentration of 25 mg/kg. The injection was on day 7 of life (P7, postnatal day 7). Inflammation was measured by assessing the number of CD4^+ CD8^+, MAC1^+, and MHCII^+ cells, using immunocytochemistry. Concentrations of brain cytokines were also measured, using by enzyme linked immunoabsorbent (ELISA) assays.

Experiment [5] has as its system brain cytokines (TGFβ, IL1β). In words: Brain cytokine concentrations by ELISA in NP-C mice. The experiment is classed as in vivo, mouse. Conditions: adult NP-C mice treated at day 7, vs untreated NP-C mice. How it is done: as §1, §2
In experiment [6] the test system is cerebellar astrocytes from P3 cerebella. In words: Neurotrophin secretion in cultured cerebellar astrocytes (ELISA). The experiment is classed as cell-based, mouse. How it is done:
as §1
Pure cultures of cerebellar astrocytes from P3 cerebella were cultured for 1-3 days±10 nM allopregnanolone, and NGF was assayed every 24 hr by ELISA.

Setting [7] is: adult (60-day old) NP-C mice treated at P7.

Entries after “also recorded” stand apart in the source; their conditions may differ.

Turning to `O=S(=O)(c1ccccc1)N(CC(F)(F)F)c1ccc(C(O)(C(F)(F)F)C(F)(F)F)cc1` [T0901317], in experiment [1], the “lifespan (mean)” value worked out at 80 days and the onset of symptoms result is recorded as “delayed”. Besides, in experiment [1] (rotorod), the “course of loss of motor function / decline in symptoms” value is recorded as “blunted” and the “age at which loss of motor function begins” value was 42 days.
With `CC(=O)[C@H]1CC[C@H]2[C@@H]3CC[C@H]4C[C@](C)(O)CC[C@]4(C)[C@H]3CC[C@]12C` [ganaxolone], the “weight loss and tremor” value in experiment [2] is on record as “delays”. Also, the “lifespan (average)” value in experiment [2] (single injection 25 mg/kg at P7, untreated 67 (±10) days) was 118 days. Further, the “duration of the loss of motor function” value in experiment [2] (single injection at P7, untreated 3-4 weeks) was determined as 5 weeks. Further, the “age at which loss of motor function (locomotion and coordination) begins” value in experiment [2] (single injection at P7, untreated begin at 6-7 weeks) came out at 10 weeks. Also, the “age at which weight loss begins” value in experiment [2] (single injection at P7, untreated begin at 6 weeks) is on record as 10 weeks. Moreover, the “rate of weight loss” value in experiment [2] (single injection at P7, vs untreated NP-C mice) is recorded as “more slowly”.
`CC(=O)[C@H]1CC[C@H]2[C@@H]3CC[C@H]4C[C@H](O)CC[C@]4(C)[C@H]3CC[C@]12C` [allopregnanolone]: in experiment [3] (NP-C mice, single injection 25 mg/kg at P7, compared with untreated controls), the “amount of the gangliosides GM1, GM2, and GM3 in brain” value was “reduced”. Moreover, the “degree of reduction in the gangliosides by timing of treatment” value in experiment [3] (NP-C mice, treatment at postnatal day 7 compared with postnatal day 10) is “greater reduction”. In experiment [3] (setting [7]), the “GM1 or GM2 immunostaining, cerebellum” value is recorded as “only slight immunostaining” and the “GM1 or GM2 immunostaining, thalamus/hypothalamus” value is reported as “only very slight immunostaining”. Also, the “apoptotic neurons in the brain” value in experiment [4] (NP-C mice, 25 mg/kg single injection at P7) is given as “substantial reduction”. The “number of T cells and activated macrophages in brain” value in experiment [4] (NP-C mice, 25 mg/kg single injection at P7, vs untreated controls) is given as “significant reduction”. In experiment [4] (setting [7]), the “increase in immunostaining for CD4 and CD8 T cells, cerebellum” value is “absent”; the “increase in immunostaining for CD4 and CD8 T cells, thalamus/hypothalamus” value was “absent”. Moreover, the “immunostaining for MAC1 and MHC II (activated macrophages), thalamus” value in experiment [4] (adult (60-day old) NP-C mice treated at day 7, vs untreated NP-C mice) is “substantially reduced”. Further, the “brain cytokine concentrations (TGFβ and IL1β)” value in experiment [5] is “substantial reduction; also recorded: substantially reduced”. Further, the “production of NGF” value in experiment [6] (NP-C mouse cerebellar astrocytes cultured 1-3 days with 10 nM, vs untreated control cells) is “increases”. For the same compound, the “concentrations of the neurotrophins NGF and BDNF” value in experiment [6] (cerebellar cells in culture) was “increases”. For the same compound, in experiment [1], the “lifespan (mean)” value stood at 112 days and the onset of symptoms entry is listed as “delayed”. Moreover, in experiment [1] (rotorod), the “age at which loss of motor function begins” value was 49 days.
